Experiments:
Format in all cases: in vivo
[1] = system: barnyardgrass (Echinochloa crus-galli, ECHCG); assay: Greenhouse herbicide screen, post-emerge application, phytotoxicity rating; settings: POST emergent, 14 days after application, scale 0-100
Text: (§1) A standard greenhouse herbicide activity screening system was used to evaluate the herbicidal efficacy and crop safety of these test compounds. Seven broadleaf weed species including redroot pigweed (Amaranthus retrofiexus, AMARE), velvetleaf (Abutilon theophrasti, ABUTH), sicklepod (Cassia obtusifolia, CASOB), ivyleaf morningglory (Ipomoea hederacea, IPOHE), lambsquarters (Chenopodium album, CHEAL), common ragweed (Ambrosia artemisiifolia L., AMBEL), and cocklebur (Xanthium strumarium, XANST) were used as test species. Four grass weed species including green foxtail (Setaria viridis, SETVI), barnyardgrass (Echinochloa crus-galli, ECHCG), johnsongrass (Sorghum halepense, SORHA), and large crabgrass (Digitaria sanguinalis, DIGSA) were also used. In addition, four crop species, field corn (Zea mays L., var. Dekalb 535, CORN), soybean (Glycine max L., var. Pella 86, SOY), upland rice (Oryza sp., var.Cocodrie, RICE) and wheat (Triticum aestivum L.) were included.
(§2) All plants were grown in 10 cm square plastic pots which were filled with a sandy loam soil mix. For pre-emerge tests, seeds were planted one day prior to application of the test compounds. For post-emerge tests, seeds were planted 8-21 days prior to the test to allow emergence and good foliage development prior to application of the test substances. At the time of the post-emerge application, plants of all species were usually at the 2-3 leaf stage of development.
(§3) All test compounds were dissolved in acetone and applied to the test units in a volume of 187 l/ha. Test materials were applied at rates ranging from 15 g ai/ha to 1000 g ai/ha using a track sprayer equipped with a TJ8001E even flow flat fan spray nozzle. Plants were arranged on a shelf so that the top of the canopy (post-emerge) or top of the soil surface (pre-emerge) was 40-45 cm below the nozzle. Pressurized air was used to force the test solution through the nozzle as it was mechanically advanced (via electrically driven chain drive) over the top of all test plants/pots. This application simulates a typical commercial field herbicide application.
(§4) Pre-emergence tests were top watered immediately after treatment to incorporate the test materials, then routinely top-watered for normal growth. Post-emerge test units were always bottom-watered.
(§5) At 14 days after application of the test materials, phytotoxicity ratings were recorded. A rating scale of 0-100 was used as previously described in Research Methods in Weed Science, 2nd edition, B. Truelove, Ed., Southern Weed Science Society, Auburn University, Auburn, Ala., 1977. Briefly, “0” corresponds to no damage and “100” corresponds to complete death of all plants in the test unit. This scale was used both to determine efficacy against weed species and damage to crop species. Herbicide activity data for various compounds of this invention, which are shown by compound No. in Tables 1-12, are shown in Tables 13 and 14.

[2] = system: lambsquarters (Chenopodium album, CHEAL); assay: as above; settings: POST emergent, 14 days after application, scale 0-100
Text: as §1, §2, §3, §4, §5

[3] = system: common ragweed (Ambrosia artemisiifolia L., AMBEL); assay: as above; settings: POST emergent, 14 days after application, scale 0-100
Text: as §1, §2, §3, §4, §5

[4] = system: cocklebur (Xanthium strumarium, XANST); assay: as above; settings: POST emergent, 14 days after application, scale 0-100
Text: as §1, §2, §3, §4, §5

[5] = system: redroot pigweed (Amaranthus retrofiexus, AMARE); assay: as above; settings: POST emergent, 14 days after application
Text: as §1, §2, §3, §4, §5

[6] = system: johnsongrass (Sorghum halepense, SORHA); assay: as above; settings: POST emergent, 14 days after application, scale 0-100
Text: as §1, §2, §3, §4, §5

[7] = system: ivyleaf morningglory (Ipomoea hederacea, IPOHE); assay: as above; settings: POST emergent, 14 days after application, scale 0-100
Text: as §1, §2, §3, §4, §5

[8] = system: green foxtail (Setaria viridis, SETVI); assay: as above; settings: POST emergent, 14 days after application, scale 0-100
Text: as §1, §2, §3, §4, §5

[9] = system: sicklepod (Cassia obtusifolia, CASOB); assay: as above; settings: POST emergent, 14 days after application, scale 0-100
Text: as §1, §2, §3, §4, §5

[10] = system: large crabgrass (Digitaria sanguinalis, DIGSA); assay: as above; settings: POST emergent, 14 days after application, scale 0-100
Text: as §1, §2, §3, §4, §5

[11] = system: velvetleaf (Abutilon theophrasti, ABUTH); assay: as above; settings: POST emergent, 14 days after application, scale 0-100
Text: as §1, §2, §3, §4, §5

[12] = system: barnyardgrass (Echinochloa crus-galli, ECHCG); assay: Greenhouse herbicide screen, pre-emerge application, phytotoxicity rating; settings: PRE emergent, 14 days after application, rating scale 0-100
Text: as §1, §2, §3, §4, §5

[13] = system: lambsquarters (Chenopodium album, CHEAL); assay: as above; settings: PRE emergent, 14 days after application, rating scale 0-100
Text: as §1, §2, §3, §4, §5

[14] = system: common ragweed (Ambrosia artemisiifolia L., AMBEL); assay: as above; settings: PRE emergent, 14 days after application, rating scale 0-100
Text: as §1, §2, §3, §4, §5

[15] = system: cocklebur (Xanthium strumarium, XANST); assay: as above; settings: PRE emergent, 14 days after application, rating scale 0-100
Text: as §1, §2, §3, §4, §5

[16] = system: redroot pigweed (Amaranthus retrofiexus, AMARE); assay: as above; settings: PRE emergent, 14 days after application, rating scale 0-100
Text: as §1, §2, §3, §4, §5

[17] = system: johnsongrass (Sorghum halepense, SORHA); assay: as above; settings: PRE emergent, 14 days after application, rating scale 0-100
Text: as §1, §2, §3, §4, §5

[18] = system: ivyleaf morningglory (Ipomoea hederacea, IPOHE); assay: as above; settings: PRE emergent, 14 days after application, rating scale 0-100
Text: as §1, §2, §3, §4, §5

[19] = system: green foxtail (Setaria viridis, SETVI); assay: as above; settings: PRE emergent, 14 days after application, rating scale 0-100
Text: as §1, §2, §3, §4, §5

[20] = system: sicklepod (Cassia obtusifolia, CASOB); assay: as above; settings: PRE emergent, 14 days after application, rating scale 0-100
Text: as §1, §2, §3, §4, §5

[21] = system: large crabgrass (Digitaria sanguinalis, DIGSA); assay: as above; settings: PRE emergent, 14 days after application, rating scale 0-100
Text: as §1, §2, §3, §4, §5

[22] = system: velvetleaf (Abutilon theophrasti, ABUTH); assay: as above; settings: PRE emergent, 14 days after application, rating scale 0-100
Text: as §1, §2, §3, §4, §5

[23] = 63 g ai/ha, scale 0-100 (0 no damage, 100 complete death)

COC(=NN=C(C(C)(C)C)C(C)(C)C)c1cc(-n2c(=O)cc(C(F)(F)F)n(C)c2=O)c(F)cc1Cl [Compound 5-6, 2-chloro-5-(3,6-dihydro-3-methyl-2,6-dioxo-4-(trifluoromethyl)-1(2H)-pyrimidinyl)-N-[1-(1,1-dimethylethyl)-2,2-dimethylpropylidene]-4-fluoro-benzenecarbohydrazonic Acid Methyl Ester]
0: phytotoxicity rating XANST ([4]; 63 g ai/ha) | phytotoxicity rating XANST ([15]; 63 g ai/ha)
99: phytotoxicity rating AMBEL ([3]; 250 g ai/ha) | phytotoxicity rating DIGSA ([10]; 250 g ai/ha) | phytotoxicity rating AMBEL ([14]; 250 g ai/ha) | phytotoxicity rating DIGSA ([21]; 250 g ai/ha)
100: phytotoxicity rating CHEAL ([2]; 63 g ai/ha) | phytotoxicity rating CHEAL ([2]; 250 g ai/ha) | phytotoxicity rating AMARE [5, 23] | phytotoxicity rating AMARE ([5]; 250 g ai/ha, scale 0-100) | phytotoxicity rating SORHA ([6]; 250 g ai/ha) | phytotoxicity rating SETVI ([8]; 250 g ai/ha) | phytotoxicity rating CHEAL ([13]; 63 g ai/ha) | phytotoxicity rating CHEAL ([13]; 250 g ai/ha) | phytotoxicity rating AMARE ([16]; 63 g ai/ha) | phytotoxicity rating AMARE ([16]; 250 g ai/ha) | phytotoxicity rating SORHA ([17]; 250 g ai/ha) | phytotoxicity rating SETVI ([19]; 250 g ai/ha)
35: phytotoxicity rating AMBEL ([3]; 63 g ai/ha) | phytotoxicity rating IPOHE ([7]; 63 g ai/ha) | phytotoxicity rating AMBEL ([14]; 63 g ai/ha) | phytotoxicity rating IPOHE ([18]; 63 g ai/ha)
95: phytotoxicity rating SETVI ([8]; 63 g ai/ha) | phytotoxicity rating ABUTH ([11]; 250 g ai/ha) | phytotoxicity rating SETVI ([19]; 63 g ai/ha) | phytotoxicity rating ABUTH ([22]; 250 g ai/ha)
75: phytotoxicity rating ABUTH ([11]; 63 g ai/ha) | phytotoxicity rating ABUTH ([22]; 63 g ai/ha)
40: phytotoxicity rating ECHCO ([1]; 63 g ai/ha) | phytotoxicity rating CASOB ([9]; 63 g ai/ha) | phytotoxicity rating ECHCG ([12]; 63 g ai/ha) | phytotoxicity rating CASOB ([20]; 63 g ai/ha)
90: phytotoxicity rating ECHCO ([1]; 250 g ai/ha) | phytotoxicity rating ECHCG ([12]; 250 g ai/ha)
70: phytotoxicity rating IPOHE ([7]; 250 g ai/ha) | phytotoxicity rating IPOHE ([18]; 250 g ai/ha)
10: phytotoxicity rating XANST ([4]; 250 g ai/ha) | phytotoxicity rating XANST ([15]; 250 g ai/ha)
20: phytotoxicity rating DIGSA ([10]; 63 g ai/ha) | phytotoxicity rating DIGSA ([21]; 63 g ai/ha)
98: phytotoxicity rating CASOB ([9]; 250 g ai/ha) | phytotoxicity rating CASOB ([20]; 250 g ai/ha)
25: phytotoxicity rating SORHA ([6]; 63 g ai/ha) | phytotoxicity rating SORHA ([17]; 63 g ai/ha)

Cn1c(C(F)(F)F)cc(=O)n(-c2cc(C(=O)NN=C(C(C)(C)C)C(C)(C)C)c(Cl)cc2F)c1=O [Compound 6-4, 2-chloro-5-(3,6-dihydro-3-methyl-2,6-dioxo-4-(trifluoromethyl)-1(2H)-pyrimidinyl)-4-fluoro-benzoic acid, 2-[1-(1,1-dimethylethyl)-2,2-dimethylpropylidene]hydrazide]
85: phytotoxicity rating SETVI ([8]; 63 g ai/ha)
99: phytotoxicity rating CASOB ([9]; 63 g ai/ha) | phytotoxicity rating SORHA ([17]; 63 g ai/ha)
98: phytotoxicity rating ECHCG ([12]; 63 g ai/ha) | phytotoxicity rating XANST ([15]; 63 g ai/ha) | phytotoxicity rating CASOB ([20]; 63 g ai/ha)
95: phytotoxicity rating CASOB ([9]; 250 g ai/ha)
75: phytotoxicity rating AMBEL ([3]; 63 g ai/ha) | phytotoxicity rating SORHA ([6]; 63 g ai/ha)
50: phytotoxicity rating DIGSA ([10]; 63 g ai/ha)
70: phytotoxicity rating DIGSA ([10]; 250 g ai/ha)
100: phytotoxicity rating ECHCO ([1]; 250 g ai/ha) | phytotoxicity rating CHEAL ([2]; 63 g ai/ha) | phytotoxicity rating CHEAL ([2]; 250 g ai/ha) | phytotoxicity rating AMBEL ([3]; 250 g ai/ha) | phytotoxicity rating XANST ([4]; 63 g ai/ha) | phytotoxicity rating XANST ([4]; 250 g ai/ha) | phytotoxicity rating AMARE [5, 23] | phytotoxicity rating AMARE ([5]; 250 g ai/ha, scale 0-100) | phytotoxicity rating SORHA ([6]; 250 g ai/ha) | phytotoxicity rating IPOHE ([7]; 63 g ai/ha) | phytotoxicity rating IPOHE ([7]; 250 g ai/ha) | phytotoxicity rating SETVI ([8]; 250 g ai/ha) | phytotoxicity rating ABUTH ([11]; 63 g ai/ha) | phytotoxicity rating ABUTH ([11]; 250 g ai/ha) | phytotoxicity rating ECHCG ([12]; 250 g ai/ha) | phytotoxicity rating CHEAL ([13]; 63 g ai/ha) | phytotoxicity rating CHEAL ([13]; 250 g ai/ha) | phytotoxicity rating AMBEL ([14]; 63 g ai/ha) | phytotoxicity rating AMBEL ([14]; 250 g ai/ha) | phytotoxicity rating XANST ([15]; 250 g ai/ha) | phytotoxicity rating AMARE ([16]; 63 g ai/ha) | phytotoxicity rating AMARE ([16]; 250 g ai/ha) | phytotoxicity rating SORHA ([17]; 250 g ai/ha) | phytotoxicity rating IPOHE ([18]; 63 g ai/ha) | phytotoxicity rating IPOHE ([18]; 250 g ai/ha) | phytotoxicity rating SETVI ([19]; 63 g ai/ha) | phytotoxicity rating SETVI ([19]; 250 g ai/ha) | phytotoxicity rating CASOB ([20]; 250 g ai/ha) | phytotoxicity rating DIGSA ([21]; 63 g ai/ha) | phytotoxicity rating DIGSA ([21]; 250 g ai/ha) | phytotoxicity rating ABUTH ([22]; 63 g ai/ha) | phytotoxicity rating ABUTH ([22]; 250 g ai/ha)
80: phytotoxicity rating ECHCO ([1]; 63 g ai/ha)

Reference: patent publication US6770597B2, “Benzohydrazide derivatives as herbicides and desiccant compositions containing them” (Ishihara Sangyo Kaisha, Ltd., priority 2002, dated 2004)
